# Data reported in patent publication US12161722B2, “Bifunctional heterocyclic compound having BTK degradation function via ubiquitin proteasome pathway, and use thereof” (KOREA RESEARCH INSTITUTE OF CHEMICAL TECHNOLOGY, priority 2021, dated 2024).
# Target: T1, WT BTK protein (Homo sapiens, UniProt Q06187)
# T1 construct: measured for intracellular BTK protein levels by Western blotting; endogenous in cells; host or cells: TMD-8 or RAMOS cells
# Assay: BTK protein degradation assay (Western blotting), WT BTK
# Format: cell-based
# Conditions: concentration range accounting for 50% degradation of WT BTK protein, TMD-8 or RAMOS cells, 24 hours
# Outline: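 BTK levels were read by Western blotting (GAPDH and β-actin normalisers) in RIPA lysates of TMD-8 cells exposed to compounds for 24 h at 1×10^6 cells/mL. Results scored in ranges of the concentration producing 50% loss of WT BTK.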
# T1 sequence (Q06187 whole entry): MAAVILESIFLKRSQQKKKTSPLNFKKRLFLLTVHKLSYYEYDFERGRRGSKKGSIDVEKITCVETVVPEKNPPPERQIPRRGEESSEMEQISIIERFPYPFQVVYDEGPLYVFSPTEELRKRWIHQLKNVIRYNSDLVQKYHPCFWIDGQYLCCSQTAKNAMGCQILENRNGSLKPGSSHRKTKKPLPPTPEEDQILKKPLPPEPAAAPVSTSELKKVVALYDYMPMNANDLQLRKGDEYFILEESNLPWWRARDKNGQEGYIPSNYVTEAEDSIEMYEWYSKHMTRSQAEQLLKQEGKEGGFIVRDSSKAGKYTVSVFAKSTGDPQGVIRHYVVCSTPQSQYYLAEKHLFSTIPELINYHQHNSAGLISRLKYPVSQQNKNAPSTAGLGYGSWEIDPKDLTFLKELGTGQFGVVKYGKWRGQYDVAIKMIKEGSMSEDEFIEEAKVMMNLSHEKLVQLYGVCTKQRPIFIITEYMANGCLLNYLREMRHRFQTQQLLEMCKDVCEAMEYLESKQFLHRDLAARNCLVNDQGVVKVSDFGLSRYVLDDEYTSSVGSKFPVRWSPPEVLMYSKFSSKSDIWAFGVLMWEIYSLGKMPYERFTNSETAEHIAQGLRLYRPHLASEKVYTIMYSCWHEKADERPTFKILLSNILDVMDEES
row,SMILES,DC50
1,"Cc1cccc(C)c1Nc1nn(C)c2nc(Nc3ccc(N4CCN(C5CN(c6ccc7c(c6)C(=O)N(C6CCC(=O)NC6=O)C7=O)C5)CC4)nc3)ncc12 (centres unmarked) [Compound 158, 5-(3-(4-(5-((3-((2,6-Dimethylphenyl)amino)-1-methyl-1H-pyrazolo[3,4-d]pyrimidin-6-yl)amino)pyridin-2-yl)piperazin-1-yl)azetidin-1-yl)-2-(2,6-dioxopiperidin-3-yl)isoindoline-1,3-dione]",0.1 to 10 nM
2,"Cc1cccc(C)c1Nc1nn(C)c2nc(Nc3ccc4c(c3)CN(C(=O)C3CCN(C(=O)C5CCN(c6ccc7c(c6)C(=O)N(C6CCC(=O)NC6=O)C7=O)CC5)C3)CC4)ncc12 (centres unmarked) [Compound 67, 5-(4-(3-(7-((3-((2,6-Dimethylphenyl)amino)-1-methyl-1H-pyrazolo[3,4-d]pyrimidin-6-yl)amino)-1,2,3,4-tetrahydroisoquinoline-2-carbonyl)pyrrolidine-1-carbonyl)piperidin-1-yl)-2-(2,6-dioxopiperidin-3-yl)isoindoline-1,3-dione]",10 to 1000 nM
3,"Cc1ccc(Nc2nn(C)c3nc(Nc4ccc5c(c4)CN(CC4CCN(c6ccc7c(c6)C(=O)N(C6CCC(=O)NC6=O)C7=O)CC4)CC5)ncc23)c(C)c1 (centres unmarked) [Compound 83, 5-(4-((7-((3-((2,4-Dimethylphenyl)amino)-1-methyl-1H-pyrazolo[3,4-d]pyrimidin-6-yl)amino)-3,4-dihydroisoquinolin-2 (1H)-yl)methyl)piperidin-1-yl)-2-(2,6-dioxopiperidin-3-yl)isoindoline-1,3-dione]",10 to 1000 nM
4,"Cc1cccc(C)c1Nc1nn(C)c2nc(Nc3ccc4c(c3)CN(C3CCN(CC5CN(c6ccc7c(c6)C(=O)N(C6CCC(=O)NC6=O)C7=O)C5)CC3)CC4)ncc12 (centres unmarked) [Compound 138, 5-(3-((4-(7-((3-((2,6-Dimethylphenyl)amino)-1-methyl-1H-pyrazolo[3,4-d]pyrimidin-6-yl)amino)-3,4-dihydroisoquinolin-2 (1H)-yl)piperidin-1-yl)methyl)azetidin-1-yl)-2-(2,6-dioxopiperidin-3-yl)isoindoline-1,3-dione]",0.1 to 10 nM
5,"Cc1cc(NC(=O)c2cccc(C(F)(F)F)c2)ccc1Nc1nn(C)c2nc(Nc3ccc4c(c3)CN(CC3CCN(c5ccc6c(c5)C(=O)N(C5CCC(=O)NC5=O)C6=O)CC3)CC4)ncc12 (centres unmarked) [Compound 122, N-(4-((6-((2-((1-(2-(2,6-Dioxopiperidin-3-yl)-1,3-dioxoisoindolin-5-yl)piperidin-4-yl)methyl)-1,2,3,4-tetrahydroisoquinolin-7-yl)amino)-1-methyl-1H-pyrazolo[3,4-d]pyrimidin-3-yl)amino)-3-methylphenyl)-3-(trifluoromethyl)benzamide]",10 to 1000 nM
6,"Cc1cccc(C)c1Nc1nn(C)c2nc(Nc3ccc(C4CN(CC5CCN(c6ccc7c(c6)C(=O)N(C6CCC(=O)NC6=O)C7=O)CC5)C4)cc3)ncc12 (centres unmarked) [Compound 175, 5-(4-((3-(4-((3-((2,6-Dimethylphenyl)amino)-1-methyl-1H-pyrazolo[3,4-d]pyrimidin-6-yl)amino)phenyl)azetidin-1-yl)methyl)piperidin-1-yl)-2-(2,6-dioxopiperidin-3-yl)isoindoline-1,3-dione]",0.1 to 10 nM
7,"Cc1cccc(C)c1Nc1nn(C)c2nc(Nc3ccc(N4CCN(C[C@H]5CCN(c6ccc7c(c6)C(=O)N(C6CCC(=O)NC6=O)C7=O)C5)CC4)cc3)ncc12 (stereo partly drawn) [Compound 179, 5-((R)-3-((4-(4-((3-((2,6-Dimethylphenyl)amino)-1-methyl-1H-pyrazolo[3,4-d]pyrimidin-6-yl)amino)phenyl)piperazin-1-yl)methyl)pyrrolidin-1-yl)-2-(2,6-dioxopiperidin-3-yl)isoindoline-1,3-dione]",0.1 to 10 nM
8,"Cc1cccc(C)c1Nc1nn(C)c2nc(Nc3ccc4c(c3)CN(C(=O)Cc3cccc(NC5=CC(=O)N(C6CCC(=O)NC6=O)C5=O)c3)CC4)ncc12 (centres unmarked) [Compound 192, 3-(3-((3-(2-(7-((3-((2,6-Dimethylphenyl)amino)-1-methyl-1H-pyrazolo[3,4-d]pyrimidin-6-yl)amino)-3,4-dihydroisoquinolin-2 (1H)-yl)-2-oxoethyl)phenyl)amino)-2,5-dioxo-2,5-dihydro-1H-pyrrol-1-yl)piperidin-2,6-one]",10 to 1000 nM
9,"Cc1ccccc1Nc1nn(C)c2nc(Nc3ccc4c(c3)CN(CC3CCN(c5ccc6c(c5)C(=O)N(C5CCC(=O)NC5=O)C6=O)CC3)CC4)ncc12 (centres unmarked) [Compound 84, 2-(2,6-Dioxopiperidin-3-yl)-5-(4-((7-((1-methyl-3-(o-tolylamino)-1H-pyrazolo[3,4-d]pyrimidin-6-yl)amino)-3,4-dihydroisoquinolin-2 (1H)-yl)methyl)piperidin-1-yl)isoindoline-1,3-dione]",0.1 to 10 nM
10,"Cc1cccc(C)c1Nc1nn(C)c2nc(Nc3ccc4c(c3)CN(C(=O)COC3CCN(c5ccc6c(c5)C(=O)N(C5CCC(=O)NC5=O)C6=O)CC3)CC4)ncc12 (centres unmarked) [Compound 127, 5-(4-(2-(7-((3-((2,6-Dimethylphenyl)amino)-1-methyl-1H-pyrazolo[3,4-d]pyrimidin-6-yl)amino)-3,4-dihydroisoquinolin-2 (1H)-yl)-2-oxoethoxy)piperidin-1-yl)-2-(2,6-dioxopiperidin-3-yl)isoindoline-1,3-dione]",0.1 to 10 nM
11,"Cc1cccc(C)c1Nc1nn(C)c2nc(Nc3ccc4c(c3)CN(CC3CCN(c5ccc6c(c5)C(=O)N(C5CCC(=O)NC5=O)C6=O)CC3)C4)ncc12 (centres unmarked) [Compound 73, 5-(4-((5-((3-((2,6-Dimethylphenyl)amino)-1-methyl-1H-pyrazolo[3,4-d]pyrimidin-6-yl)amino)isoindolin-2-yl)methyl)piperidin-1-yl)-2-(2,6-dioxopiperidin-3-yl)isoindoline-1,3-dione]",10 to 1000 nM
12,"Cc1cccc(C)c1Nc1nn(C)c2nc(Nc3ccc(N4CCN(CC5CCN(C(=O)c6ccc7c(c6)CN(C6CCC(=O)NC6=O)C7=O)CC5)CC4)cc3)ncc12 (centres unmarked) [Compound 256, 3-(5-(4-((4-(4-((3-((2,6-Dimethylphenyl)amino)-1-methyl-1H-pyrazolo[3,4-d]pyrimidin-6-yl)amino)phenyl)piperazin-1-yl)methyl)piperidine-1-carbonyl)-1-oxoisoindolin-2-yl)piperidin-2,6-one]",0.1 to 10 nM
13,"Cc1cccc(C)c1Nc1nn(C)c2nc(Nc3ccc4c(c3)CN(CC(O)CN3CCN(c5ccc6c(c5)C(=O)N(C5CCC(=O)NC5=O)C6=O)CC3)CC4)ncc12 (centres unmarked) [Compound 178, 5-(4-(3-(7-((3-((2,6-Dimethylphenyl)amino)-1-methyl-1H-pyrazolo[3,4-d]pyrimidin-6-yl)amino)-3,4-dihydroisoquinolin-2 (1H)-yl)-2-hydroxypropyl)piperazin-1-yl)-2-(2,6-dioxopiperidin-3-yl)isoindoline-1,3-dione]",0.1 to 10 nM
14,"Cc1cccc(C)c1Nc1nn(C)c2nc(Nc3ccc4c(c3)CN(C(=S)C3CCN(C(=O)C5CCN(c6ccc7c(c6)C(=O)N(C6CCC(=O)NC6=O)C7=O)CC5)CC3)CC4)ncc12 (centres unmarked) [Compound 234, 5-(4-(4-(7-((3-((2,6-dimethylphenyl)amino)-1-methyl-1H-pyrazolo[3,4-d]pyrimidin-6-yl)amino)-1,2,3,4-tetrahydroisoquinoline-2-carbonothioyl)piperidine-1-carbonyl)piperidin-1-yl)-2-(2,6-dioxopiperidin-3-yl)isoindoline-1,3-dione]",0.1 to 10 nM
